Earlier results as cited in article PMC3725996 (Bioorganic & medicinal chemistry letters, 2010).

Columns and labels:
[1] = system: extracellular DA in rat nucleus accumbens; conditions: following acute or repeated nicotine administration, ref [16]
[2] = system: nicotine self-administration; conditions: rats; ref [17]

Cc1ccc[n+](CCCCCCCCCCCC[n+]2cccc(C)c2)c1.[Br-].[Br-] [bPiDDB 1, N,N′-dodecane-1,12-diyl-bis-3-picolinium dibromide]
Effect on increase in extracellular DA in nucleus accumbens [1]: dose-dependently reduced the increase in extracellular DA
Oral bioavailability (oral route, ref Albayati et al., unpublished data): limited bioavailability when given by the oral route
Brain bioavailability (subcutaneous delivery, 14C-bPiDDB, ref [19]–[20]): brain-bioavailable after subcutaneous delivery
Effect on nicotine self-administration [2]: dose-dependently decreased nicotine self-administration
Effect on sucrose-maintained responding [2]: but not sucrose-maintained responding
